Entries after “also recorded” stand apart in the source; their conditions may differ.
Assays:
[1] = test system: testosterone-induced hair growth suppression; test: Androgen-induced alopecia model, hair re-growth in shaved mice; type: in vivo, C57BL/6J mice; details: topical testosterone 1% in the morning, JC9 0.02% in the afternoon, 20 days
Description: C57BL/6J mice were used in this animal model for hair loss and regrowth (Uno et al. (1990) J. Cutaneous Aging & Cosm. Derm., 1: 193, which is incorporated by reference in its entirety herein). Six-week-old male mice (6 to 7 animals per group) were shaved with an electric clipper, and then treated with a hair-removal cream for 1 to 2 minutes. […] One day after hair removal, a first group of animals each received 100 microliters of a 1% testosterone solution in ethanol, applied topically to the shaved area, once each morning for twenty consecutive days. A second group of animals each received 100 microliters of vehicle (ethanol) alone, applied topically to the shaved area, once each morning for twenty consecutive days. The first group of mice (testosterone-treated) were divided further into a control group and a treatment group. Also beginning one day after hair removal, each mouse in the control group received 100 microliters of a control solution (60% ethanol, 20% propylene glycol, and 20% water) and each mouse in the treatment group received 100 microliters of the test compound, JC9 (0.02% in the same 60% ethanol, 20% propylene glycol, and 20% water solution), applied topically to the shaved area, once each afternoon for twenty consecutive days. Hair re-growth in the shaved areas was observed and photographed at 12, 15, 18, 21, and 24 days after beginning of the topical treatments.

[2] = target: T1, PPAR gamma (Homo sapiens, UniProt P37231); test: Western blot of LNCaP cell lysates, PPAR gamma; type: cell-based; details: 1 or 2 micromolar, 24 hours, presence or absence of DHT
T1 construct: endogenous in cells; host or cells: LNCaP
T1 sequence (P37231 1-505): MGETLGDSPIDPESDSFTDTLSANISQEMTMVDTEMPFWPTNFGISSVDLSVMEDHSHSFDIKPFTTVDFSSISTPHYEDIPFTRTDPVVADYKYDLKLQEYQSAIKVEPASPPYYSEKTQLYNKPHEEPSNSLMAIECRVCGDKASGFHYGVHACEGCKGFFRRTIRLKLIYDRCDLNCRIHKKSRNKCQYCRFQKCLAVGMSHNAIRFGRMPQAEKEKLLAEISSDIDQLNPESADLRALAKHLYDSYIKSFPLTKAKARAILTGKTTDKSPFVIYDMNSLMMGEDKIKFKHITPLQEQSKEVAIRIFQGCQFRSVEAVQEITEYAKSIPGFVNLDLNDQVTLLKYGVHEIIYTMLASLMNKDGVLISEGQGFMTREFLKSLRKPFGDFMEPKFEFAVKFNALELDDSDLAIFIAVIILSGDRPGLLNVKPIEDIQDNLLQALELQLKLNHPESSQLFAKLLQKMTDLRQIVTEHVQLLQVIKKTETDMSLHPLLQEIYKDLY
Description: (§1) Human prostate cancer LNCaP cells and T47D cells were plated at a density of 7×10^5 cells per 60 millimeter tissue culture dish in […] (RPMI) medium containing 10% FBS. The medium was changed to RPMI or DME medium containing 10% charcoal-stripped serum 24 hours later to deplete cellular androgens or estrogens. After another 24 hours, treatment with the test compounds began. The test dose of JC15 was 1 or 2 micromolar and the test does of JC9 was 1, 5 and 10 micromolar. LNCap cells also received dihydrotestosterone (DHT) (3 nanomolar). Control cells received a corresponding amount of the vehicle, dimethylsulfoxide (DMSO) (<0.04%) for an equivalent exposure time. Cells were incubated with JC15 for 24 or 48 hours, and were lysed in 250 microliters of 1×SDS/PAGE loading buffer. Approximately 40 micrograms of total cellular protein was loaded in each lane of a pre-cast gel (NuPAGE, Invitrogen). Protein separation and transfer were performed following the manufacturer's instructions.
(§2) For the prostate cell lysates, androgen receptor (AR) protein was visualized by incubating the resultant membranes with an anti-AR antibody (BD-PharMingen), followed by chemiluminescence detection (ECL Plus, Amersham). […] The resultant protein signals were quantified using densitometry and NIH ImageJ software.

[3] = target: T2, PPAR beta (Homo sapiens, UniProt Q03181); test: Western blot of LNCaP cell lysates, PPAR beta; type: cell-based; details: 1 or 2 micromolar, 24 hours, presence or absence of DHT
T2 construct: endogenous in cells; host or cells: LNCaP
T2 sequence (Q03181 1-441): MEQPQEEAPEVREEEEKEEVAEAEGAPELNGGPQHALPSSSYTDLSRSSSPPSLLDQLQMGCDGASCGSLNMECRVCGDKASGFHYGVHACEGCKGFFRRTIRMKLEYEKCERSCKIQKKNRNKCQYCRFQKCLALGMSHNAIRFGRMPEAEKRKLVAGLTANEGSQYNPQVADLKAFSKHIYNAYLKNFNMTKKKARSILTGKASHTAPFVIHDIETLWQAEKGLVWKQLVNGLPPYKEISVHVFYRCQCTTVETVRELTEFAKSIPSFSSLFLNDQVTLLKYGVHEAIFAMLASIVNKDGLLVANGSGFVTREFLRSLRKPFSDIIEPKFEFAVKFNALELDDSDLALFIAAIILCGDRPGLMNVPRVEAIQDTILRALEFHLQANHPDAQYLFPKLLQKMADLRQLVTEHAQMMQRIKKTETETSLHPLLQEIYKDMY
Description: as §1, §2

[4] = test system: hsp70; test: Western blot of LNCaP cell lysates, hsp70; type: cell-based, human; details: 1 or 2 micromolar, 24 hours, presence or absence of DHT
Description: as §1, §2

Row | Structure (SMILES) | hair re-growth in shaved areas [1] | cellular concentration of PPAR gamma [2] | cellular concentration of PPAR beta [3] | cellular concentration of hsp70 [4]
1 | COc1ccc(C=CC(=O)C=C(O)C=Cc2ccc(OC)c(OC)c2)cc1OC [JC9, 5-hydroxy-1,7-bis(3,4-dimethoxyphenyl)-1,4,6-heptatrien-3-one] | rapid re-growth of hair in the shaved areas from day 10 to day 20; also recorded: hair growth on day 8 and fully re-growth of hair in the shaved areas after 20 days | – | – | –
2 | CCOC(=O)CCC(C(=O)C=Cc1ccc(O)c(OC)c1)C(=O)C=Cc1ccc(O)c(OC)c1 (stereo not shown) [JC15, 7-(4-hydroxy-3-methoxyphenyl)-4-[3-(4-hydroxy-3-methoxyphenyl)acryloyl]-5-oxo-hept-6-enoic acid ethyl ester] | – | did not substantially affect | did not substantially affect | did not substantially affect

Source: patent US20060084704A1, “Methods and compositions for enhancing degradation of nuclear receptor transcription factors and uses thereof” (priority 2004, published 2006)
